Where a chain is given by its changes, count along the chain named.

One test concerns the target T1, FLT3 N841I (Homo sapiens, UniProt P36888, N841I).
T1 construct: purchased DiscoverX (KINOMEscan); host or cells: E. coli BL21-derived host (T7 phage) or HEK-293
T1 sequence (P36888 27-993 N841I): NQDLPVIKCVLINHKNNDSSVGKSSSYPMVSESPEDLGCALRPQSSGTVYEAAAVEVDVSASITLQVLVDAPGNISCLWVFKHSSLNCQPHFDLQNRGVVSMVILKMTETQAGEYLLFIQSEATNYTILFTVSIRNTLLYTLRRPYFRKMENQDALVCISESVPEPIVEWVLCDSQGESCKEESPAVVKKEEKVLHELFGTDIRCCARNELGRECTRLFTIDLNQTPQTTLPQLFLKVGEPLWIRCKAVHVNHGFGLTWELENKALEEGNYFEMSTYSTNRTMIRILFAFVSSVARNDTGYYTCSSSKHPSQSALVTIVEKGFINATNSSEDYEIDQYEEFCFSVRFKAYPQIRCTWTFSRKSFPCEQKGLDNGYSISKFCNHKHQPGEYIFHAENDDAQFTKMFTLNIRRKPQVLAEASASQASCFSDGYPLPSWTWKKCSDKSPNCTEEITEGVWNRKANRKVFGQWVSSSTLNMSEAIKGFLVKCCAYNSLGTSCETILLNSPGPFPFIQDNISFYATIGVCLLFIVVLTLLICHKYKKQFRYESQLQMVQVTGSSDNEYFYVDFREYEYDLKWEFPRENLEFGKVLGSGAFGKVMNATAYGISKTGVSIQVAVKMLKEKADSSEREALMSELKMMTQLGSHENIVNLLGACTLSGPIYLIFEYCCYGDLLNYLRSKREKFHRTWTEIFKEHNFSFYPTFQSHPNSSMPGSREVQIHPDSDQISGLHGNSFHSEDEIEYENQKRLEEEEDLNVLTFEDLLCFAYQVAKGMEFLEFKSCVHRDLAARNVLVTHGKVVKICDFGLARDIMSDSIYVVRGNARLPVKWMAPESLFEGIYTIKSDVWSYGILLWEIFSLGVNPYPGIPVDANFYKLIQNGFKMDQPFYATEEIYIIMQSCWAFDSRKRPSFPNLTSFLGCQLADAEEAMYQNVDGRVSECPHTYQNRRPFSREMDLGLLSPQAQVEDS
Put plainly: DiscoverX KINOMEscan competition binding assay, FLT3 N841I. To be noted: 11-point 3-fold dilution. From the text: (§1) […]. […] As a result, the data report thermodynamic interaction affinities (Kd values), rather than IC50 values that are dependent on ATP concentrations. The assay uses a DNA-tagged version of the protein kinase, and an immobilized ligand bound to a solid support. Compounds that directly or indirectly prevent kinase binding to the immobilized ligand reduce the amount of kinase captured on the solid support, which is detected using an ultra-sensitive qPCR method. Affinity constants reported from the assay have been reported to be independent of the immobilized ligand used that is coupled to the solid support (See supplemental information in Fabian, M. A. et. al., (2005) Nat. Biotechnol. 23, 329-336; Wodicka, L. M. et. al., (2010) Chem. Biol. 17, 1241-1249.)
(§2) Kinase-tagged T7 phage strains were prepared in an E. coli host derived from the BL21 strain. E. coli were grown to log-phase and infected with T7 phage and incubated with shaking at 32° C. until lysis. The lysates were centrifuged and filtered to remove cell debris. The remaining kinases were produced in HEK-293 cells and subsequently tagged with DNA for qPCR detection. Streptavidin-coated magnetic beads were treated with biotinylated small molecule ligands for 30 minutes at room temperature to generate affinity resins for kinase assays. The liganded beads were blocked with excess biotin and washed with blocking buffer (SeaBlock (Pierce), 1% BSA, 0.05% Tween 20, 1 mM DTT) to remove unbound ligand and to reduce non-specific binding. […] Test compounds were prepared as 111× stocks in 100% DMSO. Kds were determined using an 11-point 3-fold compound dilution series with three DMSO control points. All compounds for Kd measurements are distributed by acoustic transfer (non-contact dispensing) in 100% DMSO. The compounds were then diluted directly into the assays such that the final concentration of DMSO was 0.9%. All reactions were performed in polypropylene 384-well plates. Each was a final volume of 0.02 mL. […] The kinase concentration in the eluates was measured by qPCR.
(§3) Binding constants (Kds) were calculated with a standard dose-response curve using the Hill equation. The Hill Slope was set to −1. Curves were fitted using a non-linear least square fit with the Levenberg-Marquardt algorithm.

The target of the next test is T2, FLT3 D835V (Homo sapiens, UniProt P36888, D835V).
T2 construct: purchased DiscoverX (KINOMEscan); host or cells: E. coli BL21-derived host (T7 phage) or HEK-293
T2 sequence (P36888 27-993 D835V): T1 sequence (P36888 27-993 N841I) with D809V, I815N
Put plainly: DiscoverX KINOMEscan competition binding assay, FLT3 D835V. The settings on record: 11-point 3-fold dilution.
Excerpt: as §1, §2, §3

With `COc1cc2ncc(-c3nc(N[C@H]4CNCC[C@@H]4F)ncc3F)n2nc1C1CC1` [Compound 1a, 4-(6-cyclopropyl-7-methoxyimidazo[1,2-b]pyridazin-3-yl)-5-fluoro-N-((3S,4S)-4-fluoropiperidin-3-yl)pyrimidin-2-amine], the Kd at FLT3 N841I and at FLT3 D835V was < 0.17 nM each time.

Regarding `FC(F)COc1cc2ncc(-c3ccnc(N[C@H]4CNCC[C@@H]4F)n3)n2nc1C1CC1` [Compound 4a, 4-(6-cyclopropyl-7-(2,2-difluoroethoxy)imidazo[1,2-b]pyridazin-3-yl)-N-((3 S,4S)-4-fluoropiperidin-3-yl)pyrimidin-2-amine], the Kd at FLT3 N841I is 0.88 nM; on FLT3 D835V, < 0.17 nM.

Take `COc1cc2ncc(-c3nc(N[C@H]4CNCC[C@@H]4F)ncc3F)n2nc1C(C)(C)O` [Compound 45a, 2-(3-(5-fluoro-2-(((3S,4S)-4-fluoropiperidin-3-yl)amino)pyrimidin-4-yl)-7-methoxyimidazo[1,2-b]pyridazin-6-yl)propan-2-ol]: the Kd on FLT3 N841I came out at 1.1 nM; at FLT3 D835V it was 0.87 nM.

For the molecule `CC(C)(O)c1ccc2ncc(-c3nc(N[C@H]4CNCC[C@@H]4F)ncc3F)n2c1` [Compound 46a, 2-(3-(5-fluoro-2-(((3S,4S)-4-fluoropiperidin-3-yl)amino)pyrimidin-4-yl)imidazo[1,2-a]pyridin-6-yl)propan-2-ol], the figures for the Kd on FLT3 N841I and on FLT3 D835V were 3.2 nM and 0.53 nM, respectively.

Consider `COc1cc2ncc(-c3nc(N[C@H]4CNCC[C@@H]4F)ncc3F)n2nc1C1COC1` [Compound 92a, 5-fluoro-N-((3S,4S)-4-fluoropiperidin-3-yl)-4-(7-methoxy-6-(oxetan-3-yl)imidazo[1,2-b]pyridazin-3-yl)pyrimidin-2-amine], for which the values for the Kd at FLT3 N841I and on FLT3 D835V were 0.18 nM and < 0.17 nM, respectively.

Take `CC(C)(O)c1cn2c(-c3nc(N[C@H]4CNCC[C@@H]4F)ncc3F)cnc2cn1` [Compound 100a, 2-(3-(5-fluoro-2-(((3S,4S)-4-fluoropiperidin-3-yl)amino)pyrimidin-4-yl)imidazo[1,2-a]pyrazin-6-yl)propan-2-ol]: the Kd at FLT3 N841I was found to be 16 nM; on FLT3 D835V it was 2.1 nM.

With `COc1cc2ncc(-c3nc(N[C@H]4CNCC[C@@H]4F)ncc3F)n2nc1N1CCCS1(=O)=O` [Compound 112a, 2-(3-(5-fluoro-2-(((3S,4S)-4-fluoropiperidin-3-yl)amino)pyrimidin-4-yl)-7-methoxyimidazo[1,2-b]pyridazin-6-yl)isothiazolidine 1,1-dioxide], the Kd at FLT3 N841I is 0.2 nM; at FLT3 D835V, < 0.17 nM.

For orientation: Kd means the concentration at which binding is half-saturated. A lower Kd goes with a tighter complex.

Values taken from patent US20260226048A1, “MULTI-CYCLIC IRAK AND FLT3 INHIBITING COMPOUNDS AND USES THEREOF” (CHILDREN'S HOSPITAL MEDICAL CENTER, priority 2023, published 2026).
